Results: ChEMBL document CHEMBL1201862, “PubChem BioAssay data set” (2004)
Active and inactive are the calls of the source.

What was measured:
[1] = inhibitors of CMV-promoter luciferase reporter, dose response, counter-screen for Pax8 inhibitor project, cell-based, HEK293, luminescence, dry powder (AID 743020); format: functional
[2] = HEp-2 cell cytotoxicity, dose response, cytotoxicity control for RSV inhibitor project, HTS (AID 2410); format: functional; conditions: human respiratory syncytial virus
[3] = molecular target: T1, Sentrin-specific protease 1 (Homo sapiens, UniProt Q9P0U3); test: potency of human SENP1 inhibitors, dose response, biochemical, kinetic FRET (AID 651697); format: functional; conditions: read-out: IC50_Mean
[4] = molecular target: T2, RNA-binding protein pos-1 (Caenorhabditis elegans, UniProt G5EF15); test: inhibitors of POS-1/mex-3 RNA binding, dose response, biochemical, fluorescence polarization (AID 1964);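 further: purified POS-1 fused to maltose binding protein made in E. coli; potency of compounds blocking POS-1 binding to fluorescent RNA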
T2 sequence (G5EF15 whole entry): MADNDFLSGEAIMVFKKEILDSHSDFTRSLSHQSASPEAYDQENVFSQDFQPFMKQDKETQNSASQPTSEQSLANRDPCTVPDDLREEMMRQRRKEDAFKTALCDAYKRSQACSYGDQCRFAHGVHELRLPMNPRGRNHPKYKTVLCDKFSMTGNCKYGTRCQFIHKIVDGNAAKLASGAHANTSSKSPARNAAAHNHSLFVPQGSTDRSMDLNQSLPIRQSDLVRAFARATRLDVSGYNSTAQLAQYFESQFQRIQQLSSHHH

[5] = molecular target: T1, Sentrin-specific protease 1; test: Dose response confirmation of small molecule inhibitors of the catalytic domain of the SUMO protease, SENP1 in a FRET assay.; format: functional; conditions: read-out: IC50_Mean
[6] = molecular target: T3, Zinc finger protein mex-5 (Caenorhabditis elegans, UniProt Q9XUB2); test: MEX-5/TCR-2 RNA interaction inhibitors, dose response, biochemical, C. elegans, fluorescence polarization (AID 1960)
T3 sequence (Q9XUB2 whole entry): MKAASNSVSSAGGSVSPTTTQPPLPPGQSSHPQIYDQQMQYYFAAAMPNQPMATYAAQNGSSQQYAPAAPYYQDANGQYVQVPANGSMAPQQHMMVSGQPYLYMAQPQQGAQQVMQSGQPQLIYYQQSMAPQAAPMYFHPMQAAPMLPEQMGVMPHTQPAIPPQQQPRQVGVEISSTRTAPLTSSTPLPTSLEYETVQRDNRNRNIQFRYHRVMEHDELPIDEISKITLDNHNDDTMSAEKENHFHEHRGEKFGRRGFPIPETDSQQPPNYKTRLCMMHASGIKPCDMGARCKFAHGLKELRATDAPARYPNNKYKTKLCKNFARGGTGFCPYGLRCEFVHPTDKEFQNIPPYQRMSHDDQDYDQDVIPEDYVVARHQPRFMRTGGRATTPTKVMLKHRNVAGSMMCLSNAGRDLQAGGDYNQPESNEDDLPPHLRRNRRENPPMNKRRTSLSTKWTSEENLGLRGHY

[7] = molecular target: G-protein coupled receptor 55 (Homo sapiens, UniProt Q9Y2T6); test: GPR55 antagonists blocking LPI-driven arrestin recruitment, primary screen, imaging, U2OS, beta-arrestin-GFP, LPI agonist (AID 2013); format: functional;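 further: antagonist potency measured as reduced agonist-driven arrestin aggregation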
[8] = HEK293T cell cytotoxicity, dose response, cytotoxicity control for HIV Vif inhibitor project, cherry-picks (AID 652208); format: functional, cell-based
[9] = molecular target: Matrix metalloproteinase-14 (Homo sapiens, UniProt P50281); test: Dose Response confirmation of uHTS hits for a small molecule inhibitors of MT1-MMP activation in a fluorescence assay set 1.; format: functional
[10] = HT1080 parental cell cytotoxicity, dose response, cytotoxicity control for MT1-MMP activation inhibitor project, ATPLite luminescence, set 1 (AID 652252); format: functional
[11] = ARNT/TACC3 interaction disruptors, potency, confirmation, biochemical, AlphaScreen, cherry-picked samples (AID 651703); format: functional, Homo sapiens;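 further: His-tagged ARNT PAS-B domain paired with GST-TACC3 E629A dimer coactivator fragment; potency of inhibitors that break up the complex and lower AlphaScreen signal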
Caspase-6 = molecular target: T4, Caspase-6 (Homo sapiens, UniProt P55212); test: human caspase-6 inhibitors, dose response, biochemical, VEID-R110 fluorescence, cherry-pick (AID 720632)
T4 sequence (P55212 whole entry): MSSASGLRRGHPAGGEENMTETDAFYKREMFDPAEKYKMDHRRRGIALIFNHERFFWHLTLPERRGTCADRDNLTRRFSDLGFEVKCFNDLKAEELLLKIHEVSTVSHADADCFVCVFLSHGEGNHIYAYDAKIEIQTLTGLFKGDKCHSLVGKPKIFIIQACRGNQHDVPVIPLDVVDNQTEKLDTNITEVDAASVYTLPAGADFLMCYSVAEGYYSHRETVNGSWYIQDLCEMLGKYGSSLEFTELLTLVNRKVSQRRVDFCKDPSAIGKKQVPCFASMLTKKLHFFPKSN

[12] = molecular target: T5, Nuclear receptor subfamily 0 group B member 1 (Homo sapiens, UniProt P51843); format: functional, cell-based;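 further: HEK293T cells transfected with SF-1 and DAX-1 plus StAR promoter luciferase reporter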
T5 sequence (P51843 whole entry): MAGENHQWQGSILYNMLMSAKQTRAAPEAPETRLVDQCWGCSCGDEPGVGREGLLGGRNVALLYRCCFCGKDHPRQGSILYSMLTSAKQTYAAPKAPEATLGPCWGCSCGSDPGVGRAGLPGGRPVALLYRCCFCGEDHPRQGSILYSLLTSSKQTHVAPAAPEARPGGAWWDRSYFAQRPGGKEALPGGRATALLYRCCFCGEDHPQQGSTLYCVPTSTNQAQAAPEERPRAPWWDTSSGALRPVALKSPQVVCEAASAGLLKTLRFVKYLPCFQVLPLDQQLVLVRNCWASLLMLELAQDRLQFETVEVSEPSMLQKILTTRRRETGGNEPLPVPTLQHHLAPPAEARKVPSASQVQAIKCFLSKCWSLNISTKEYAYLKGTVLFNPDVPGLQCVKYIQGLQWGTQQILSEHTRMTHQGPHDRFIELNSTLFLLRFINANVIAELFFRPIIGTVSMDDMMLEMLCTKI

[13] = LGR2 antagonists, dose response, cell-based, HEK293, CRE-luciferase reporter, cherry pick, set 2 (AID 743343); format: functional;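 further: transfected cells were stimulated with diluted bursicon conditioned medium after compound addition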
[14] = MC4R antagonists, dose response, counter-screen for LGR2 antagonist project, cell-based, plate reader, cherry pick (AID 743444); format: functional;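 further: transfected HEK 293 cells stimulated with alpha-MSH peptide; potency of inhibitors of the alpha-MSH evoked signal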
[15] = HEK293 cell cytotoxicity, dose response, cytotoxicity control, plate reader, cherry-picked samples (AID 743446); format: functional, cell-based
cells = format: functional, cell-based
[16] = HepG2 cell cytotoxicity, dose response, cytotoxicity control, plate reader, cherry-pick, antagonist series (AID 743416); format: functional, cell-based
[17] = A549 cell cytotoxicity, dose response, cytotoxicity control, plate reader, cherry-pick, antagonist series (AID 743412); format: functional, cell-based
Streptococcus = test: Group A Streptococcus viability loss, dose response, counter-screen for streptokinase expression inhibitor project, luminescence, BacTiterGlo (AID 1915); format: functional, organism-based;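 further: potency for reduction of bacterial viability or growth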
[18] = molecular target: Latent membrane protein 1 (Human herpesvirus 4 (strain B95-8), UniProt P03230); test: TES1-eGFP NF-kB reporter inhibition versus Tet-On dsRED, dose response, selectivity assay for LMP1 NF-kB inhibitor project, imaging, HEK293T, dual-color eGFP/dsRED, cherry-picks (AID 588398); format: functional, cell-based
HEK293 = test: inhibitors of LMP1-driven NF-kB reporter, dose response, cell-based, HEK293, luciferase, cherry-pick (AID 588343); format: functional; conditions: Homo sapiens
[19] = test system: Streptococcus sp. 'group A'; test: growth inhibition of control SK(-) GAS strain, dose response, counter-screen for streptokinase expression inhibitor project, luminescence, kanamycin, BacTiterGlo, confirmation (AID 1900); format: functional, organism-based
A549 = test: A549 cell toxicity, dose response, cytotoxicity control, plate reader, cherry-pick samples (AID 687028); format: functional, cell-based; conditions: Homo sapiens
Beta-lactamase [20] = molecular target: T6, Beta-lactamase (Pseudomonas aeruginosa, UniProt Q79MP6); test: […] counterscreen for selective VIM-2 inhibitors: dose response biochemical high throughput screening assay to identify inhibitors of IMP-1 metallo-beta-lactamase.
Beta-lactamase [21] = molecular target: Beta-lactamase (Salmonella choleraesuis (strain SC-B67), UniProt Q5J463); test: Epi-absorbance-based counterscreen for selective VIM-2 inhibitors: dose response biochemical high throughput screening assay to identify inhibitors of TEM-1 serine-beta-lactamase.
Beta-lactamase [22] = molecular target: T6, Beta-lactamase; test: IMP-1 metallo-beta-lactamase inhibitors, dose response, selectivity assay for VIM-2 inhibitor project, biochemical, epi-absorbance (AID 1920)
[23] = molecular target: Protein-tyrosine kinase 2-beta (Homo sapiens, UniProt Q14289);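 further: potency of inhibitors of PYK2 kinase phosphorylation of poly-GT substrate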
[24] = molecular target: T7, Methionyl-tRNA synthetase, putative (Trypanosoma brucei brucei, UniProt Q38C91); format: functional, Trypanosoma brucei brucei strain 927/4 GUTat10.1
[25] = molecular target: T7, Methionyl-tRNA synthetase, putative; format: functional, Trypanosoma brucei brucei strain 927/4 GUTat10.1; remark: listed apart in the source
[26] = Counterscreen for inhibitors of Trypanosoma brucei methionyl tRNA synthetase (MetRS): Luminescence-based cell-based high throughput dose response assay to identify compounds that are cytotoxic to Jurkat human T lymphocyte cells.; format: functional

T7 sequence (Q38C91 whole entry): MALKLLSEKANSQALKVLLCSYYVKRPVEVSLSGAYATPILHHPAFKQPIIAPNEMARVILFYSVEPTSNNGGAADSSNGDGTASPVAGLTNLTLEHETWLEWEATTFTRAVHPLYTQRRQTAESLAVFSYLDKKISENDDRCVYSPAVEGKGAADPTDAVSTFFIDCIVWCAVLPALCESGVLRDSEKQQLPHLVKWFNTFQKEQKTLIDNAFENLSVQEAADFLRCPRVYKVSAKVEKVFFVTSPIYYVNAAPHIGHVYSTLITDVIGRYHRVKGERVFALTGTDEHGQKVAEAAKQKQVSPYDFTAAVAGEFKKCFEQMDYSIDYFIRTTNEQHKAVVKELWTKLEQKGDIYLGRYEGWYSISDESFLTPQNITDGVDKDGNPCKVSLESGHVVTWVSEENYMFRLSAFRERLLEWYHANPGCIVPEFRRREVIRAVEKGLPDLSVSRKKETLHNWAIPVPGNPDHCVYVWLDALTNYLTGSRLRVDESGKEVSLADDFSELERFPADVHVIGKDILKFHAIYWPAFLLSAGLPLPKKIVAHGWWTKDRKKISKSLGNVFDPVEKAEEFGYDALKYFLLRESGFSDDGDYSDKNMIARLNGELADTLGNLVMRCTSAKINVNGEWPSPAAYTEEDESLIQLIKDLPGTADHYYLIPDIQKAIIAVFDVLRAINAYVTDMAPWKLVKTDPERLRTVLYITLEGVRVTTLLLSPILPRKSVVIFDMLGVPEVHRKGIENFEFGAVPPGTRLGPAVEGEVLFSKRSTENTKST
T1 sequence (Q9P0U3 whole entry, the tested form may be a part): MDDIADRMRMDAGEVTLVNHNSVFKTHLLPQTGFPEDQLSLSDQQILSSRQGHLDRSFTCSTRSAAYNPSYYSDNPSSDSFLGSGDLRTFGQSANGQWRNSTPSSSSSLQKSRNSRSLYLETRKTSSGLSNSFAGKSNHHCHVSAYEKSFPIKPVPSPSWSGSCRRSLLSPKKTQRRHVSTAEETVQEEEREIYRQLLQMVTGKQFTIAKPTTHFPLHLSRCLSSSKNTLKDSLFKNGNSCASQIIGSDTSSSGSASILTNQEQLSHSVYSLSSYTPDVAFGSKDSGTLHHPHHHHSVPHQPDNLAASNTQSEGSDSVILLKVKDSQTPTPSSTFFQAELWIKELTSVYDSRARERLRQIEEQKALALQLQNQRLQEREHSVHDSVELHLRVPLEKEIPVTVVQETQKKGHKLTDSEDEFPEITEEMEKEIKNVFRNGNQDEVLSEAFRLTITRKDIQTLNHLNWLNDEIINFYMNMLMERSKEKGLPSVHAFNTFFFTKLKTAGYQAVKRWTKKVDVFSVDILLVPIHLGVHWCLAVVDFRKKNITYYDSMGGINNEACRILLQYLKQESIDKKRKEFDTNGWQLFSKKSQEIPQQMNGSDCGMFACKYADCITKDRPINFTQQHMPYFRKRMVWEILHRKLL
T6 sequence (Q79MP6 whole entry): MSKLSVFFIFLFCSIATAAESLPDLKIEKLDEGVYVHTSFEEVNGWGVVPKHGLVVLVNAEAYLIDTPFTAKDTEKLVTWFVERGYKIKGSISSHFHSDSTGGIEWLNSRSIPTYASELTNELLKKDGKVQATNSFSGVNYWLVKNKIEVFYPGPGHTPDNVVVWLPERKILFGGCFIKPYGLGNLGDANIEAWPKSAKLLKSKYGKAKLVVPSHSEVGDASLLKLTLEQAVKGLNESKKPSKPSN
Latent membrane protein 1, sequence (P03230 whole entry): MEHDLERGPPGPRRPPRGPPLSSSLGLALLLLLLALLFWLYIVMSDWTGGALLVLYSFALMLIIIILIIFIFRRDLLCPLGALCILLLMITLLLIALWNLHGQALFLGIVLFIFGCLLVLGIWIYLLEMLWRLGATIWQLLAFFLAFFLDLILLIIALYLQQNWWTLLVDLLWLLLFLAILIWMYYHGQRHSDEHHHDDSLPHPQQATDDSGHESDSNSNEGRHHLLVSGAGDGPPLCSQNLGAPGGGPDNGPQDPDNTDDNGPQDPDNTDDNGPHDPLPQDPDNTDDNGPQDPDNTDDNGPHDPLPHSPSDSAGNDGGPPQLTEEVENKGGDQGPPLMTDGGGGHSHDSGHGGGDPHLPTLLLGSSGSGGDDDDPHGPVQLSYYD
Beta-lactamase (Salmonella choleraesuis (strain SC-B67), UniProt Q5J463), sequence (Q5J463 whole entry): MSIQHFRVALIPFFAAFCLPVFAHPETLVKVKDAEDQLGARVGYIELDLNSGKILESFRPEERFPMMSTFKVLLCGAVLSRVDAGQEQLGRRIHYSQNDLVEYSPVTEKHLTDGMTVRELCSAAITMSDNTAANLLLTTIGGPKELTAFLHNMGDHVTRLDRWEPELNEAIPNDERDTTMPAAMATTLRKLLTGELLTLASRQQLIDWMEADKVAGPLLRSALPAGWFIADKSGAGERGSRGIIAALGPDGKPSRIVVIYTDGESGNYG
G-protein coupled receptor 55, sequence (Q9Y2T6 whole entry): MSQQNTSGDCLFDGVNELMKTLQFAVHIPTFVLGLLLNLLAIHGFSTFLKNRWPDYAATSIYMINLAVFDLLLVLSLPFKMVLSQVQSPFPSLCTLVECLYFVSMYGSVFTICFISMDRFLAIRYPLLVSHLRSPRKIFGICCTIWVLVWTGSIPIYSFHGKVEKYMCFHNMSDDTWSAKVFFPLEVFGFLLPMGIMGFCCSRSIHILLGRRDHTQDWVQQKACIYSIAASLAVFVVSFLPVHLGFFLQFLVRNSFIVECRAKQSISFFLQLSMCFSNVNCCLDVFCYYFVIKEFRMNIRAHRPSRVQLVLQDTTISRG
Protein-tyrosine kinase 2-beta, sequence (Q14289 whole entry): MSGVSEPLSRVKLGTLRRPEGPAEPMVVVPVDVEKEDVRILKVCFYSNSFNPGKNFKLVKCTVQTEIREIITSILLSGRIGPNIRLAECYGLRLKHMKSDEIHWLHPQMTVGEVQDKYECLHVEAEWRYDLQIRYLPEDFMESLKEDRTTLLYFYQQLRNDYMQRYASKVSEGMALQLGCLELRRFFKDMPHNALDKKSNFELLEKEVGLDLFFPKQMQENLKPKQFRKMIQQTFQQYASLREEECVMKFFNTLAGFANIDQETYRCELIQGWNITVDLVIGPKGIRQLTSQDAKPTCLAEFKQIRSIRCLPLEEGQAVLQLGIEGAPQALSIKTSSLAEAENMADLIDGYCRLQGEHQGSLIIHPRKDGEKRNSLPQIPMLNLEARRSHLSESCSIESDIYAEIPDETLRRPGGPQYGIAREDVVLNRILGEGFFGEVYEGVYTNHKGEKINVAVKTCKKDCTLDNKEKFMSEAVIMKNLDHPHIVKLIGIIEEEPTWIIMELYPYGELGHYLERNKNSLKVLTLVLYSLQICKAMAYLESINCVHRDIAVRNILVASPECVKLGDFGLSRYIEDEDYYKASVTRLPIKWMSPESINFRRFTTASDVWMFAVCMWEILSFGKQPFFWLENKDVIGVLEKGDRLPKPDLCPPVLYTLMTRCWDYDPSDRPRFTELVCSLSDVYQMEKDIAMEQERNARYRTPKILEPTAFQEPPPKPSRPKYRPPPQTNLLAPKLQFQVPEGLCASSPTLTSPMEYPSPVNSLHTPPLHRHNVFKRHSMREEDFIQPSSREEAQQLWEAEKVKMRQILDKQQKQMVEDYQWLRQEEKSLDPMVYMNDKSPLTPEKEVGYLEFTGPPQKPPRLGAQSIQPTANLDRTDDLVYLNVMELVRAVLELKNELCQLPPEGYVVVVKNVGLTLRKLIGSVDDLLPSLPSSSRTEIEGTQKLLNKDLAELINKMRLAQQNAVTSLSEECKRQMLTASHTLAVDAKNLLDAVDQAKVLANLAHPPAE

SMILES: Cc1nn(CCO)c2nc(-c3cccs3)cc(C(F)(F)F)c12
- AC50 [1]: 26.3 µM (active)
- CC50 [2]: > 50 µM (active)

SMILES: Cc1cccc(-c2c3c(=O)n(C)c(=O)n(C)c3c3cccnn23)c1
- IC50 [3]: 27 µM (inactive)
- EC50 [4]: 83.8 µM (active)
- IC50 [5]: 11.3 µM (active)
- EC50 [6]: 87.6 µM (active)

SMILES: CCCN1C(=O)/C(=C\C=C2\N(CC)c3ccccc3C2(C)C)SC1=S
- IC50 [7]: 0.824 µM (active)
- AC50 [8]: > 52 µM (inactive)

SMILES: O=C(CF)NC(Nc1cccc2cccnc12)C(Cl)(Cl)Cl (stereo unspecified)
- IC50 [9]: 2.03 µM (active)
- IC50 [10]: > 10 µM (active)

SMILES: Cc1ccc2[nH]c3c(c2c1)CCCC3NCCO (stereo unspecified)
- AC50 [11]: 135 µM (active)
- AC50 (Caspase-6): 22.2 µM (active)

SMILES: COc1ccc(-c2cc3nc4n(c(=O)c3s2)CCC4)cc1
- IC50 [12]: > 0.278 µM (active)
- AC50 [13]: 2.53 µM (active)
- AC50 [14]: 2.65 µM (active)
- AC50 [15]: 36.4 µM (active)
- IC50 (cells): > 67.5 µM (inactive)
- AC50 [16]: > 52 µM (inactive)
- AC50 [17]: > 52 µM (inactive)
- EC50 (Streptococcus): 2.48 µM (active)
- AC50 [18]: 28 µM (active)
- AC50 (HEK293): 1.48 µM (active)
- EC50 [19]: 0.706 µM (active)

SMILES: Cc1cccc(OCC(=O)NNC(=O)C2CCCCC2C(=O)O)c1 (stereo unspecified)
- AC50 (A549): 26.4 µM (active)

SMILES: O=P(O)(O)c1ccccc1OCc1ccccc1
- IC50 (Beta-lactamase [20]): > 59.6 µM (inactive)
- IC50 (Beta-lactamase [21]): > 59.6 µM (inactive)
- IC50 (Beta-lactamase [22]): > 59.6 µM (inactive)
- IC50 [23]: 2.21 µM (active)

SMILES: COC(=O)CN1C(=S)N(c2ccc(Cl)cc2)C(=O)C1CC(=O)Nc1ccc(Cl)cc1 (stereo unspecified)
- IC50 [24]: 13.7 µM (inactive)
- IC50 [25]: 19.7 µM (inactive)
- IC50 [26]: 83.3 µM (inactive)
